Several values for one entry are separate records, joined by “and”; a condition that tells them apart may be missing. Equal values may be shown once.
Key:
[1] = RNA encapsulation efficiency of LNPs by Quant-IT Ribogreen; type: physicochemical; details: for Encaps. efficiency (%): LNPs with luciferase mRNA, ionizable lipid:non-cationic lipid:sterol:PEG-modified lipid 50:10:38.5:1.5, percentage of RNA entrapped in the LNP
Description: The mRNA aqueous solution was then carefully added to the ethanol solution, and the resulted solution was homogenized by pipetting up and down for 4-5 times. The resulting LNPs were immediately diluted 1:1 with Tris buffer and dialyzed overnight against Tris buffer containing 15% sucrose. The resulting LNP solution was then collected, and the encapsulated mRNA was assessed by Quant-IT® Ribogreen (Invitrogen R11490) following the manufacturer's instructions.
(§1) The LNP solution was then adjusted to a final concentration of mRNA of 100 µg/ml. Size distribution, polydispersity and Z-potential were measured by dynamic light scattering (DLS) using Malvern Zetasizer Advance Lab Blue Label. RNA encapsulation was assessed by Quant-IT® Ribogreen following the manufacturer's instructions.

[2] = Size distribution, polydispersity and Z-potential of LNPs by dynamic light scattering (Malvern Zetasizer); type: physicochemical; details: LNPs, standard formulation 50:10:38.5:1.5; DLS
Description: as §1

[3] = Apparent pKa of LNPs comprising the ionizable lipid (Table 6); details: standard formulation 50:10:38.5:1.5

Compound	Encaps. efficiency (%) [1] [%]	P.D.I. [2]	Particle size/ Ø (nm) [2] [nm]	Z Potential (± D.E.) [mV] [2] [mV]	Apparent pKa [3]	Encaps. efficiency ([1]; Table 8, LNP 50:10:38.5:1.5, luciferase mRNA)
CCCCCCCC#CCOC(=O)CCSCCC(NC(=O)C(CCCCCC)CCCCCCCC)C(=O)NC1CCN(C)CC1 (centres unmarked) [VC-LC-0429]	46.96	0.14	155.6	-12.49	6.48	–
CCCCCCCC/C=C\CCCCCCCCOC(=O)CCSCCC(NC(=O)C(CCCCCC)CCCCCCCC)C(=O)NC1CCN(C)CC1 (centres unmarked) [VC-LC-0430]	84.48	0.23	216.2	1.65	7.00	–
CCCC#CCCOC(=O)CCSCCC(NC(=O)C(CCCCCC)CCCCCCCC)C(=O)NC1CCN(C)CC1 (centres unmarked) [VC-LC-0432]	46.27	0.29	126.9	-16.42	6.44	–
CCCCCCCCCCCCCCCCCC(=O)NC(CCSCCC(=O)OCC(CCCCCC)CCCCCCCC)C(=O)NC1CCN(C)CC1 (centres unmarked) [VC-LC-0433]	96.77	0.13	180.8	4.87	7.75	–
CCCCCCCCCCCCCCCCCC(=O)NC(CCSCCC(=O)OCCCCCCCCCCCC)C(=O)NC1CCN(C)CC1 (centres unmarked) [VC-LC-0434]	99.09	0.2483	214.6	1.34	5.72	–
CCCCCCCC/C=C\CCCCCCCCOC(=O)CCSCCC(NC(=O)CCCCCCCCCCCCCCCCC)C(=O)NC1CCN(C)CC1 (centres unmarked) [VC-LC-0438]	95.26	0.15	181.3	7.19	6.61	–
CCCCCCCCCCCCCCCCOC(=O)CCSCCC(C(=O)NC1CCN(C)CC1)C(=O)OC(CCCCCCCC)CCCCCCCC (centres unmarked) [VC-LC-0445]	48.02	–	–	-10.64	5.82	–
CCCCCCCCCCCCCOC(=O)CCSCCC(NC(=O)C(CCCCCC)CCCCCCCC)C(=O)NCCN(CC)CC (centres unmarked) [VC-LC-0473]	43.07	0.085	134.0	-7.78	6.73	–
CCCCCCCCCCCCCCOC(=O)CCSCCC(NC(=O)C(CCCCCC)CCCCCCCC)C(=O)NCCN(CC)CC (centres unmarked) [VC-LC-0478]	65.16	0.17	156.2	-7.01	6.82	–
CCCCCCCCCCCCOC(=O)CCSCCC(NC(=O)C(CCCCCC)CCCCCCCC)C(=O)NCC1CCN(C)CC1 (centres unmarked) [VC-LC-0494]	98.99	0.22	169.8	5.52	6.86	–
CCCCCCCCC(CCCCCC)C(=O)NC(CCSCCC(=O)OCCCCCC(C)C)C(=O)NCC1CCN(C)CC1 (centres unmarked) [VC-LC-0498]	99.46	0.15	152.3	1.06	7.47	–
CCCCCCCC#CCOC(=O)CCSCCC(NC(=O)C(CCCCCC)CCCCCCCC)C(=O)NCC1CCN(C)CC1 (centres unmarked) [VC-LC-0505]	99.88	–	168.6	-2.94	6.74	–
CCCCCCCCCCC(CCCCCCCC)C(=O)NC(CCSCCC(=O)OCCCCCCCC(C)C)C(=O)NCC1CCN(C)CC1 (centres unmarked) [VC-LC-0509]	98.62	0.23	170.1	0.25	7.60	–
CCCCCCCCCCC(CCCCCCCC)C(=O)NC(CCSCCC(=O)OCC(CC)CCCC)C(=O)NCC1CCN(C)CC1 (centres unmarked) [VC-LC-0510]	97.61	0.15	144.9	-2.73	7.39	–
CCCCCCCCCCC(CCCCCCCC)C(=O)NC(CCSCCC(=O)OCCCCCC)C(=O)NCC1CCN(C)CC1 (centres unmarked) [VC-LC-0518]	97.70	0.17	149.1	3.90	6.67	–
CCCCCCCCCCC(CCCCCCCC)C(=O)NC(CCSCCC(=O)OCCCCCCCC)C(=O)NCC1CCN(C)CC1 (centres unmarked) [VC-LC-0519]	97.15	0.16	137.9	-1.93	6.69	–
CCCCCCCC/C=C\CCCCCCCCOC(=O)CCSCCC(NC(=O)C(CCCCCCCC)CCCCCCCCCC)C(=O)NCC1CCN(C)CC1 (centres unmarked) [VC-LC-0523]	95.57	0.17	169.3	5.29	7.32	–
CCCCCCCCC(CCCCCC)COC(=O)CCSCC(CC(=O)NC1CCN(C)CC1)C(=O)OCC(CCCCCC)CCCCCCCC (centres unmarked) [VC-LC-0525]	59.89	0.18	151	-5.11	6.67	59.9% and 95.6%
CCCCCCCCOC(=O)CCSCC(CC(=O)NC1CCN(C)CC1)C(=O)OCC(CCCCCC)CCCCCCCC (centres unmarked) [VC-LC-0535]	96.61	0.11	144.7	4.45	7.87	–
CCCCCCCCCCCCC(CCCCCCCCCC)COC(=O)CCSCC(CC(=O)NC1CCN(C)CC1)C(=O)OCC(CCCCCC)CCCCCCCC (centres unmarked) [VC-LC-0537]	69.42	0.14	165.1	-8.81	5.23	–
CCCCCCCC#CCOC(=O)CCSCC(CC(=O)NC1CCN(C)CC1)C(=O)OCC(CCCCCC)CCCCCCCC (centres unmarked) [VC-LC-0538]	96.86	0.16	153.4	5.13	8.25	–

The remaining lines, values ahead:

Encaps. efficiency (%) [1] [%]	P.D.I. [2]	Particle size/ Ø (nm) [2] [nm]	Z Potential (± D.E.) [mV] [2] [mV]	Apparent pKa [3]	Encaps. efficiency ([1]; Table 8, LNP 50:10:38.5:1.5, luciferase mRNA)	Compound
85.85	0.07	185.7	-3.35	6.28	–	CCCCCCCCCCCCCCOC(=O)CCSCCC(C(=O)NC1CCN(C)CC1)C(=O)OC(CCCCCCCC)CCCCCCCC (centres unmarked) [VC-LC-0444]
66.27	0.21	153.2	-7.69	5.61	–	CCCCCCCCC(CCCCCC)COC(=O)CCSCCC(NC(=O)C(CCCCCC)CCCCCCCC)C(=O)NCCN(CC)CC (centres unmarked) [VC-LC-0474]
52.31	0.13	135	-4.72	6.59	–	CCCCCCCCC(CCCCCC)C(=O)NC(CCSCCC(=O)OCCCCCCCC(C)C)C(=O)NCCN(CC)CC (centres unmarked) [VC-LC-0475]
57.43	0.15	146.7	-9.55	6.65	–	CCCCCCCCCCCCOC(=O)CCSCCC(NC(=O)C(CCCCCC)CCCCCCCC)C(=O)NCCN(CC)CC (centres unmarked) [VC-LC-0477]
73.32	0.2	154.5	-6.33	6.37	–	CCCCCCCCCCCCCCCCOC(=O)CCSCCC(NC(=O)C(CCCCCC)CCCCCCCC)C(=O)NCCN(CC)CC (centres unmarked) [VC-LC-0480]
62.45	0.16	149.1	-4.15	6.79	–	CCCCCCCC#CCOC(=O)CCSCCC(NC(=O)C(CCCCCC)CCCCCCCC)C(=O)NCCN(CC)CC (centres unmarked) [VC-LC-0488]
60.57	0.13	143.8	-5.88	6.03	–	CCCCCCCC/C=C\CCCCCCCCOC(=O)CCSCCC(NC(=O)C(CCCCCC)CCCCCCCC)C(=O)NCCN(CC)CC (centres unmarked) [VC-LC-0489]
98.15	0.16	150.9	0.83	7.47	–	CCCCCCCCC(CCCCCC)C(=O)NC(CCSCCC(=O)OCCCCCCCC(C)C)C(=O)NCC1CCN(C)CC1 (centres unmarked) [VC-LC-0492]
98.56	0.12	128.8	-0.57	6.46	–	CCCCCCCCC(CCCCCC)C(=O)NC(CCSCCC(=O)OCC(CC)CCCC)C(=O)NCC1CCN(C)CC1 (centres unmarked) [VC-LC-0493]
98.97	0.14	155.6	4.06	6.85	–	CCCCCCCCCCCCOC(=O)CCSCCC(NC(=O)C(CCCCCCCC)CCCCCCCCCC)C(=O)NCC1CCN(C)CC1 (centres unmarked) [VC-LC-0511]
99.89	0.15	137.8	8.05	8.11	–	CCCCCCCCC(CCCCCC)COC(=O)C(CSCCC(=O)OCCCCCC(C)C)CC(=O)NC1CCN(C)CC1 (centres unmarked) [VC-LC-0532]
